{"source": "the supplement of paper PMC8837787", "tested_on": "Saccharomyces cerevisiae ABC16-Green Monster", "assay": "growth inhibition at single dose (up to 150 µM), below the 70% cut-off for dose-response; higher = more potent", "settings": "18 h; 30 °C; YPD", "how_it_was_run": "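Data are given as percent growth inhibition. Log-phase drug-sensitive S. cerevisiae ABC16-Green Monster cells (OD600 0.1–0.2, 200 µl per well in 96-well plates) were treated in biological duplicates with each library compound at a single 150 µM dose, with untreated cultures alongside, and OD600 was measured at 0 h and after 18 h at 30 °C. Compounds falling below 70% in both replicates were not taken to dose-response.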"}
{"smiles": "O=C(NCCN1CCCC1)c1cc(NCCN2CCOCC2)nc2ccc(Cl)cc12", "values": [{"measurement": "growth inhibition at single dose", "result": "< 70", "unit": "%"}]}
{"smiles": "Cc1cnc(NC(=O)c2ccc(N(C)C3CCCCC3)cc2)s1", "values": [{"measurement": "growth inhibition at single dose", "result": "< 70", "unit": "%"}]}
{"smiles": "CCN(CC)C(=O)N1CCN(C)CC1", "values": [{"measurement": "growth inhibition at single dose", "result": "< 70", "unit": "%"}]}
{"smiles": "CCOC(=O)c1c[nH]c2cc(Cl)cc(Cl)c2c1=O", "values": [{"measurement": "growth inhibition at single dose", "result": "< 70", "unit": "%"}]}
{"smiles": "COc1ccc(N2CCN(C(CNC(=O)C3CCCCC3)c3ccc4c(c3)OCO4)CC2)cc1", "note": "(configuration not stated)", "values": [{"measurement": "growth inhibition at single dose", "result": "< 70", "unit": "%"}]}
{"smiles": "CC(C)(C)c1ccc(C2CC3=Nc4ccccc4N(C(=O)c4ccccc4Cl)C(c4ccc(F)cc4)C3=C(O)C2)cc1", "note": "(configuration not stated)", "values": [{"measurement": "growth inhibition at single dose", "result": "< 70", "unit": "%"}]}
{"smiles": "COc1cccc(C(=O)Nc2ccc(-c3nc4ccccc4[nH]3)cc2)c1", "values": [{"measurement": "growth inhibition at single dose", "result": "< 70", "unit": "%"}]}
{"smiles": "Cc1cc(/C=C/C(=O)Nc2nccs2)c(C)n1-c1ccccc1", "values": [{"measurement": "growth inhibition at single dose", "result": "< 70", "unit": "%"}]}
{"smiles": "Cc1ccc(O)c(C(=O)NCCc2ccc3c(c2)OCCO3)c1", "values": [{"measurement": "growth inhibition at single dose", "result": "< 70", "unit": "%"}]}
{"smiles": "COc1ccc(C2Sc3ccccc3N=C3C2=C(O)c2ccccc23)cc1", "note": "(configuration not stated)", "values": [{"measurement": "growth inhibition at single dose", "result": "< 70", "unit": "%"}]}
{"smiles": "Cc1ccc(-c2cc3c(nn2)-c2ccccc2C3=O)cc1", "values": [{"measurement": "growth inhibition at single dose", "result": "< 70", "unit": "%"}]}
{"smiles": "COc1ccc(CNc2ncnc3ccccc23)cc1", "values": [{"measurement": "growth inhibition at single dose", "result": "< 70", "unit": "%"}]}
{"smiles": "CC1Cc2cc(C(=O)CSc3nnc(Cc4cccs4)n3C)ccc2N1S(C)(=O)=O", "note": "(configuration not stated)", "values": [{"measurement": "growth inhibition at single dose", "result": "< 70", "unit": "%"}]}
{"smiles": "Cc1[nH]c(-c2ccccn2)nc(=O)c1CC(=O)NC1CCCCCCC1", "values": [{"measurement": "growth inhibition at single dose", "result": "< 70", "unit": "%"}]}
{"smiles": "c1cncc(NCc2ccc(-c3cc4ccncc4cc3OC3CCNCC3)s2)c1", "values": [{"measurement": "growth inhibition at single dose", "result": "< 70", "unit": "%"}]}
{"smiles": "Cc1cc(C(=O)COC(=O)c2[nH]nc3ccccc23)c(C)n1CC1CCCO1", "note": "(configuration not stated)", "values": [{"measurement": "growth inhibition at single dose", "result": "< 70", "unit": "%"}]}
{"smiles": "Cc1nn(Cc2ccccc2)c(Cl)c1C(=O)NC1CCCCCC1", "values": [{"measurement": "growth inhibition at single dose", "result": "< 70", "unit": "%"}]}
{"smiles": "CCN(CC)CCCNc1nc(-c2ccc(Cl)cc2)nc2ccccc12", "values": [{"measurement": "growth inhibition at single dose", "result": "< 70", "unit": "%"}]}
{"smiles": "O=C(Nc1ccccc1)c1cn(-c2ccc3c(c2)OCCO3)nn1", "values": [{"measurement": "growth inhibition at single dose", "result": "< 70", "unit": "%"}]}
{"smiles": "COc1ccc(-c2cnc3ccc(NCc4ccc(S(N)(=O)=O)cc4)nn23)cn1", "values": [{"measurement": "growth inhibition at single dose", "result": "< 70", "unit": "%"}]}
{"smiles": "CO/N=C(\\C(=O)OC)c1ccccc1CO/N=C(\\C)c1cccc(C(F)(F)F)c1", "values": [{"measurement": "growth inhibition at single dose", "result": "< 70", "unit": "%"}]}
{"smiles": "CC(C)NC(=O)NCc1ccc(C(=O)OCC(=O)C(C#N)=C2Nc3ccccc3N2)cc1", "values": [{"measurement": "growth inhibition at single dose", "result": "< 70", "unit": "%"}]}
{"smiles": "CO[C@H]1/C=C/O[C@@]2(C)Oc3c(C)c(O)c4c(O)c(/c(=C/NN5CCN(C)CC5)c(O)c4c3C2=O)=N\\C(=O)/C(C)=C\\C=C/[C@H](C)[C@H](O)[C@@H](C)[C@@H](O)[C@@H](C)[C@H](OC(C)=O)[C@@H]1C", "values": [{"measurement": "growth inhibition at single dose", "result": "< 70", "unit": "%"}]}
{"smiles": "N#Cc1ccc(CN2CCCN(c3ncnc4sccc34)CC2)cc1", "values": [{"measurement": "growth inhibition at single dose", "result": "< 70", "unit": "%"}]}
{"smiles": "CC(=O)c1c(C)[nH]c(C(=O)Nc2nc3ccccc3[nH]2)c1C", "values": [{"measurement": "growth inhibition at single dose", "result": "< 70", "unit": "%"}]}
{"smiles": "COc1cc(C2=NCCN2)ccc1-n1cc(-c2cccc(C3=NCCN3)c2)nn1", "values": [{"measurement": "growth inhibition at single dose", "result": "< 70", "unit": "%"}]}
{"smiles": "OCC1CCCN(c2nn3cc(-c4ccccc4)nc3s2)C1", "note": "(configuration not stated)", "values": [{"measurement": "growth inhibition at single dose", "result": "< 70", "unit": "%"}]}
{"smiles": "CC1CCCCN1C(=O)NCCc1coc(-c2ccc(F)cc2)n1", "note": "(configuration not stated)", "values": [{"measurement": "growth inhibition at single dose", "result": "< 70", "unit": "%"}]}
{"smiles": "COCC(C)Nc1ncnc2scc(-c3ccc(OC)cc3)c12", "note": "(configuration not stated)", "values": [{"measurement": "growth inhibition at single dose", "result": "< 70", "unit": "%"}]}
{"smiles": "CCCn1nnc(NC(=O)COc2ccc(C3CCCCC3)cc2)n1", "values": [{"measurement": "growth inhibition at single dose", "result": "< 70", "unit": "%"}]}
{"smiles": "CNc1snc(C)c1C(=O)OCc1cc(C(=O)OC)c(C)o1", "values": [{"measurement": "growth inhibition at single dose", "result": "< 70", "unit": "%"}]}
{"smiles": "CC(NC(C)c1ccc(Cl)cc1)C(=O)Nc1sccc1C(N)=O", "note": "(configuration not stated)", "values": [{"measurement": "growth inhibition at single dose", "result": "< 70", "unit": "%"}]}
